What was measured:
[1] = test system: normal human CD34+ hematopoietic progenitors; assay: Survival under essential amino acid starvation; format: cell-based
Jurkat cells [2] = test system: Jurkat cells
Excerpt: It was then sought to determine whether GSK3α promotes survival in response to starvation of these amino acids. […] It was then asked whether GSK3α promotes the survival of normal cells in response to essential amino acid starvation, using normal human CD34+ hematopoietic progenitors or CCD841 cells derived from normal human intestinal epithelium (38).

[3] = test system: CCD841 cells derived from normal human intestinal epithelium; assay: Survival under essential amino acid starvation; format: cell-based
Jurkat cells [4] = assay: GSK3α body (puncta) formation by confocal immunofluorescence microscopy; format: cell-based, human; details: for Formation of GSK3α puncta on addition of amino acid: asparagine depleted cell
Procedure: (§1) FIGS. 4A-4D show asparagine starvation induces phase separation of GSK3α into cytoplasmic bodies (or puncta), but not GSK3b. (FIG. 4A) Confocal immunofluorescence microscopy for GSK3α or the nuclear marker DAPI, in Jurkat cells treated with vehicle or asparaginase (100 U/L) for 48 hours. (FIG. 4B) Confocal immunofluorescence microscopy for GSK3β or the nuclear marker DAPI, in Jurkat cells treated with vehicle or asparaginase (100 U/L) for 48 hours. (FIG. 4C) Number of puncta per 50 cells. (FIG. 4D) Formation of GSK3α bodies is selective to asparaginase, and is not induced by other cellular stressors such as other chemotherapeutics or heat shock. ****, p<0.0001. ns (not significant), p>0.05.
FIGS. 6A and 6B show GSK3α bodies function in the protein ubiquitination-proteasomal degradation pathway in response to asparagine starvation. (FIG. 6A) Jurkat T-ALL cells were treated with vehicle, asparaginase, the GSK3α inhibitor BRD0705, or the combination of asparaginase and BRD0705 (combo). Immunofluorescence microscopy was then performed for GSK3α, K48-linked ubiquitin chains (which mark proteins for proteasomal degradation), or the nuclear marker DAPI. Note that GSK3a can still undergo translocation into GSK3a bodies even if its enzymatic activity is inhibited, but the ability of GSK3a bodies to ubiquitinate proteins is completely dependent on the enzymatic activity of GSK3α. (FIG. 6B) Quantification of the immunofluorescence in 50 cells from each condition. Coloc refers to co-localization of both GSK3α and ubiquitin (ub), as determined by yellow color on the merged confocal image. ****, p<0.0001. ns (not significant), p>0.05.
(§2) To test whether GSK3α undergoes spatial sequestration in response to asparaginase, we applied immunofluorescence using paralog-selective antibodies (FIG. S4).

Jurkat T-ALL cells = assay: Co-localization of K48-linked ubiquitin with GSK3α bodies by immunofluorescence; format: cell-based, human; details: combination with asparaginase
Procedure: (FIG. 6A) Jurkat T-ALL cells were treated with vehicle, asparaginase, the GSK3α inhibitor BRD0705, or the combination of asparaginase and BRD0705 (combo). Immunofluorescence microscopy was then performed for GSK3α, K48-linked ubiquitin chains (which mark proteins for proteasomal degradation), or the nuclear marker DAPI. […] (FIG. 6B) Quantification of the immunofluorescence in 50 cells from each condition. Coloc refers to co-localization of both GSK3α and ubiquitin (ub), as determined by yellow color on the merged confocal image. ****, p<0.0001. ns (not significant), p>0.05.

Jurkat cells [5] = assay: GSK3β localization by confocal immunofluorescence microscopy; format: cell-based, human; details: asparaginase 100 U/L for 48 hours
Procedure: as §1, §2

Jurkat cells [6] = assay: Proteinase K protection assay of GSK3α; format: cell-based, human; details: Jurkat cells permeabilized with digitonin, Western blot
Procedure: Jurkat cells were treated with vehicle, asparaginase (×48 hrs) to induce formation of GSK3α bodies, or Wnt3A to induce GSK3 sequestration in membrane-bound multivesicular bodies (Taelman et al., 2010). Cells were permeabilized, and treated with vehicle or proteinase K to digest free cytoplasmic proteins. Triton is a control that dissolves all membranes.
It was then determined whether GSK3α bodies are membraneless using the proteinase K protection assay. Jurkat cells were treated with vehicle or asparaginase to trigger GSK3α body formation. As a positive control, treatment with Wnt3A was included, which triggers sequestration of GSK3 inside membrane-bound multivesicular endosomes (19). Following cytoplasmic membrane permeabilization with digitonin, cells were treated with proteinase K, and GSK3α protein levels were assessed by Western blot analysis. […] These findings indicate that GSK3α bodies are membraneless.

## CC[C@@]1(c2ccccc2)C2=C(CC(C)(C)CC2=O)Nc2[nH]ncc21 [BRD0705]
[1]
  Survival under essential amino acid starvation: impaired survival
Jurkat cells [2]; leucine-deficient medium
  Viability in leucine-deficient medium: impaired viability
Jurkat cells [2]; valine-deficient medium
  Viability in valine-deficient medium: impaired viability
[3]
  Survival under essential amino acid starvation: impaired survival
Jurkat cells [4]; Jurkat T-ALL cells, combination with asparaginase
  Effect on GSK3α biomolecular condensation in response to asparaginase: did not block the ability of GSK3α to undergo biomolecular condensation
Jurkat T-ALL cells
  Accumulation of ubiquitin in GSK3α bodies: did prevent accumulation of ubiquitin in GSK3α bodies

## CC[C@]1(c2ccccc2)C2=C(CC(C)(C)CC2=O)Nc2[nH]ncc21 [BRD5648]
[1]
  Survival under essential amino acid starvation: had no effect
[3]
  Survival under essential amino acid starvation: had no effect

## NC(=O)CC[C@H](N)C(=O)O [L-Glut, glutamine]
Jurkat cells [4]
  Formation of GSK3α puncta on addition of amino acid: does not

## NC(=O)C[C@H](N)C(=O)O [L-Asn, asparagine]
Jurkat cells [4]
  Formation of GSK3α puncta on addition of amino acid: inhibits the formation of GSK3α puncta

## asparaginase
Jurkat cells [5]
  GSK3β localization after treatment: remained broadly distributed regardless of asparaginase therapy
Jurkat cells [6]
  Accessibility of GSK3α to proteinase K digestion: remained accessible to proteinase K digestion
Jurkat cells [4]; Jurkat cells, asparaginase 100 U/L for 48 hours
  GSK3α body formation (condensation into cytoplasmic puncta) induced by treatment: triggered its condensation into distinct cytoplasmic puncta

B1: Wnt3A: positive control that triggers sequestration of GSK3 inside membrane-bound multivesicular endosomes (protein, UniProt P56704 19-352, looked up)
Protein Wnt-3a: SYPIWWSLAVGPQYSSLGSQPILCASIPGLVPKQLRFCRNYVEIMPSVAEGIKIGIQECQHQFRGRRWNCTTVHDSLAIFGPVLDKATRESAFVHAIASAGVAFAVTRSCAEGTAAICGCSSRHQGSPGKGWKWGGCSEDIEFGGMVSREFADARENRPDARSAMNRHNNEAGRQAIASHMHLKCKCHGLSGSCEVKTCWWSQPDFRAIGDFLKDKYDSASEMVVEKHRESRGWVETLRPRYTYFKVPTERDLVYYEASPNFCEPNPETGSFGTRDRTCNVSSHGIDGCDLLCCGRGHNARAERRREKCRCVFHWCCYVSCQECTRVYDVHTCK
Jurkat cells [6]
  Accessibility of GSK3α to proteinase K digestion: protected from protease digestion

Source: patent US12590966B2, “Method for treating cancer” (THE CHILDREN'S MEDICAL CENTER CORPORATION, priority 2019, dated 2026)
